Where two headings read alike, the source gives them in different places.
Tests used:
[1] = tested on: bronchospasms elicited by histamine; test: Bronchodilator Activity (Konzett Assay), histamine; type: in vivo; details: guinea pig, intravenous, spasmogen histamine, three logarithmic cumulative doses
Procedure: (§1) The bronchodilator activity of some of the PGE compounds of this invention is determined in guinea pigs against bronchospasms elicited by intravenous injections of 5-hydroxytryptamine, histamine or acetylcholine by the Konzett procedure. [See J. Lulling, P. Lievens, F. El Sayed and J. Prignot, Arzneimittel-Forschung, 18, 995 (1968)].
(§2) In the Table B which follows, bronchodilator activity for representative compounds of this invention against one or more of the three spasmogenic agents is expressed as an ED50 determined from the results obtained with three logarithmic cumulative intravenous doses.

[2] = tested on: bronchospasms elicited by 5-hydroxytryptamine; test: Bronchodilator Activity (Konzett Assay), 5-hydroxytryptamine; type: in vivo; details: guinea pig, intravenous, spasmogen 5-hydroxytryptamine, three logarithmic cumulative doses
Procedure: as §1, §2

[3] = tested on: bronchospasms elicited by acetylcholine; test: Bronchodilator Activity (Konzett Assay), acetylcholine; type: in vivo; details: guinea pig, intravenous, spasmogen acetylcholine, three logarithmic cumulative doses
Procedure: as §1, §2

[4] = tested on: continuous respiratory spasm induced by pilocarpine; test: Bronchodilator Activity (Pilocarpine Assay); type: in vivo; details: dog, aerosol, 3.2 mg/ml; for inhibition at 3200 µg/mL: Canis lupus familiaris, inhaled or nasal
Procedure: The PGE compounds of this invention also have bronchodilator activity as determined in a test using dogs anesthetized, artificially ventilated and submitted to a continuous respiratory spasm induced by pilocarpine. Mongrel dogs of either sex weighing between 5 and 10 kg are used. They are premedicated with morphine HCl by subcutaneous injection at 1.5 mg/Kg. An intravenous perfusion of 5% (W/V) chloralose is started 1/2 hour after the morphine injection in such a way that 60 mg/Kg are administered within 15 minutes. After completion, a continuous perfusion of 10 mg/Kg hour is maintained throughout the experiment. The dogs are artificially ventilated by means of a Starling pump at a rate of 20 breaths/minute. The volume is adjusted according to the weight of the animal. [Kleinman and Radford, J. Appl. Physiol., 19, 360 (1964)]. All the measurements are made with the dogs positioned supine in a heated, V-shaped table. Curarization is obtained by succinylcholine chloride using a starting injection of 3 mg/Kg lasting 3 minutes, followed by a continuous perfusion of 0.1 mg/Kg/minute. The respiratory spasm is induced by a starting injection of 400 mcg/Kg of pilocarpine HCl lasting 5 minutes. An increase or decrease in the dose of pilocarpine HCl may occur as a function of the observed effect on airway's resistance. A 15 minute delay is observed before the start of a continuous perfusion of pilocarpine HCl at a dose of 4 mcg/Kg/minute to maintain a constant spasm during the test. A metallic cannula is inserted and fixed, after tracheotomy, into the upper part of the trachea. The two cephalic veins and the two femoral veins are catheterized to inject the various agents. The femoral artery is catheterized to measure the systemic blood pressure. An esophageal balloon (11 cm×2.5 cm) is inserted into the lower third of the oesophagus to measure the endothoracic pressure. The measurement of air flow is made with a […] pneumotachograph connected to the tracheal tube. The transpulmonary pressure is measured as follows: The tracheal cannula is equipped with a stainless steel axial tube (1.5 mm) which is closed at its distal end and projected 2.5 cm beyond the end of the cannula. Three holes with a diameter of one mm are pierced on this latter segment. This tube, which is used to measure the tracheal pressure, is connected to one of the two chambers of a Sanborn 267 B/C differential transducer. The other chamber is connected to the esophageal balloon by means of a polyethylene catheter of the same length and characteristics as the balloon's. The airway's resistance, expressed in cm of water/liter/second, is measured by subtracting from the electrical equivalent of the transpulmonary pressure, a voltage proportional to the flow so as to synchronize the pressure and volume signals on the oscilloscope [Mead and Whittenberger, J. Appl. Physiol, 5, 779 (1953)]. The test compounds are administered by an Aerosol® route. The micronebulizer of a Bird Mark 7 respirator is fitted on the metallic cannula just after the pneumotachograph. The "puff" of the test compound, in Aerosol® is driven by a 2 Kg/cm^2 pressure, allowed into the micronebulizer just during one inspiration cycle. The micronebulizer is fitted on the respiratory tube only during the "puff". It is weighed just before and just after administration to determine the amount of test compound administered.

[5] = tested on: platelet aggregation induced by collagen; test: Inhibition of platelet aggregation in vitro, collagen; type: cell-based; details: 0.025 mg/ml, human plasma
Description: (§3) It is well known that platelet aggregation inhibitors may be useful as anti-thrombotic drugs. Inhibition of platelet aggregation can be conveniently measured in vitro by monitoring changes in optical density and/or light transmission in platelet rich plasma upon addition of suitable aggregating agents such as adenosine diphosphate, epinephrine, thrombin or collagen. Alternatively, platelet aggregation can be measured in vitro using platelet rich plasma obtained at various time intervals from animals given inhibitors by an oral or parenteral route.
(§4) […] is incubated with modified Tyrode's solution in a proportion of 40-50% human protein rich plasma. The test compounds are added at varying concentrations and after 5 minutes incubation, an aggregating agent such as adenosine diphosphate or collagen is added. The change in optical density (light transmission) is monitored by eye and inhibition is recorded as a (-) or lack of inhibition is recorded as a (+). Test compounds are considered active if they inhibit adenosine diphosphate or collagen induced aggregation at a concentration of 0.025 mg/ml or less within 5-10 minutes.

[6] = tested on: platelet aggregation induced by adenosine diphosphate; test: Inhibition of platelet aggregation in vitro, adenosine diphosphate; type: cell-based; details: 0.025 mg/ml, human plasma
Description: as §3, §4

[7] = type: in vivo, rat; details: indomethacin-only treatment, 10 mg/kg subcut.
Procedure: (§5) Male Wistar rats (Royal Hart, New Hampton, N.Y.), weighing 190-210 g are distributed among control and treatment groups (5 rats/group) and housed one rat per cage. During the 52 hour test period, the rats are permitted free access to food and drinking water for the first 33 hours but are fasted overnight prior to sacrifice. Indomethacin is suspended (4 mg/ml) in a 1.5% starch-phosphate buffer solution (SPBS). 1,9-dioxo-11α,16-dihydroxy-16-methyl-1-hydroxymethyl-13-transprostene is dissolved at 10 mg/ml in ethanol and then diluted in SPBS to 0.1 mg/ml or to a lower concentration as required. The indomethacin suspension is injected subcutaneously (10 mg/kg) and the prostaglandin suspension is given by gavage (0.5 mg/kg or less) b.i.d. on day 0 and 1. Rats receive only one dose of prostaglandin and indomethacin on day 2 and 6 hours later are killed with chloroform. The stomachs are dissected, opened along the greater curvature, and rinsed briefly in tap water. They are then spread, mucosal surface facing upward and pinned onto uniform size corks (2.5 inch diameter) individually numbered on the back. The identification number for each stomach is unknown to the investigator and the stomachs are randomly graded according to the following scheme:
(§6) ^a Treatment is B.I.D. on days 0 and 1, and once on day 2, six hours
(§7) prior to sacrifice for scoring.

[8] = tested on: indomethacin-induced gastric ulcers; type: in vivo, rat; details: indomethacin-only treatment, 10 mg/kg subcut.
Procedure: as §5
1--Petechial hemorrhage, or pin-point ulcers
2--One or two small ulcers or hemorrhagic erosions
3--Many areas of hemorrhage erosion or ulcers, a few large
4--Massive areas of hemorrhagic erosion or many ulcers, mainly large
as §6, §7

[9] = tested on: indomethacin-induced intestinal ulcers; type: in vivo, rat; details: indomethacin-only treatment, 10 mg/kg subcut.
Procedure: as §5
Intestines are also removed and examined for the presence of ulcers, which are graded according to the scheme outlined below.
1--Mucosa thin, petechial hemorrhage
2--"Blow-outs", when intestine inflated with air
3--Few ulcers. Gut more fragile than normal, tears along line of mesentery attachements when removed
4--Many large perforating lesions. Adhesions. Gut hemorrhagic and very fragile. Tears readily and cannot be removed intact. Graded in situ.
as §6, §7

[10] = Cavia porcellus, read-out: ED50
[11] = 5 min, 5 min. after drug administration
[12] = 0.5 h, 30 min. after drug administration
[13] = 1 h, 60 min. after drug administration

Row | SMILES | ED50 [1, 10] [µg/kg] | ED50 [2, 10] [µg/kg] | ED50 [3, 10] [µg/kg] | inhibition at 3200 µg/mL [4, 11] [%] | inhibition at 3200 µg/mL [4, 12] [%] | inhibition at 3200 µg/mL [4, 13] [%] | other results
1 | C=CC(O)(CC=CC1C(O)CC(=O)C1CC=CCCCC(=O)CO)CCCC (stereo not drawn) | 0.254 | 0.402 | 2.66 | 80 | 80 | 66 | –
2 | CCCCCC(O)/C=C/C1CCC(=O)C1CCCCCCC(=O)CO (stereo not drawn) | – | – | – | – | – | – | inhibition of platelet aggregation [5]: shows inhibition of platelet aggregation; inhibition of platelet aggregation [6]: shows inhibition of platelet aggregation
3 | C=CC(O)(CC=CC1C(O)CC(=O)C1CC=CCCCC(=O)COC(C)=O)CCCC (stereo not drawn) [1,9-Dioxo-11α,16-dihydroxy-16-vinyl-1-acetoxymethyl-5-cis-13-trans-prostadiene] | 0.78 | – | 0.795 | 92 | 75 | 55 | –
4 | CCCCC1(C(O)C=CC2C(O)CC(=O)C2CC=CCCCC(=O)CO)CCC1 (stereo not drawn) [1,9-dioxo-11α,15-dihydroxy-1-hydroxymethyl-16,16-trimethylene-13-trans-5-cis-prostadiene] | – | – | – | 80 | 74 | 68 | –
5 | CCCCC1(C(O)C=CC2C(O)CC(=O)C2CCCCCCC(=O)CO)CCC1 (stereo not drawn) [1,9-dioxo-11α,15-dihydroxy-1-hydroxymethyl-16,16-trimethylene-13-trans-prostene] | 0.734 | 1.4 | 1.3 | 90 | 75 | 60 | –
6 | CCCCCC(O)C=CC1C(O)CC(=O)C1CCCCCCC(=O)CO (stereo not drawn) [1,9-dioxo-11α,15α-dihydroxy-1-hydroxymethyl-13-trans-prostene] | 0.547 | 0.936 | 3.9 | 80 | 40 | 15 | –
7 | CCCCC1(C(O)/C=C/C2C(O)CC(=O)C2C/C=C\CCCC=O)CCC1 (stereo not drawn) [1,9-dioxo-11α,15α-dihydroxy-16,16-trimethylene-5-cis,13-trans-prostadiene] | – | – | – | – | – | – | ED50 [1]: 0.781 µg/kg; ED50 [2]: 1.49 µg/kg; ED50 [3]: 0.995 µg/kg
8 | C=CC(O)(CC=CC1C(O)CC(=O)C1CCCCCCC(=O)CO)CCCC (stereo not drawn) [1,9-dioxo-11α,16-dihydroxy-1-hydroxymethyl-16-vinyl-13-trans-prostene] | 0.25 | 0.147 | 1.7 | 90 | 80 | 70 | –
9 | CCCCCC(C)(O)CC=CC1C(O)CC(=O)C1CC=CCCCC(=O)CO (stereo not drawn) [1,9-dioxo-11α,16-dihydroxy-16,20-dimethyl-1-hydroxymethyl-13-trans-5-cis-prostadiene] | 8.8 | 47 | 19 | – | – | – | –
10 | CCCCCC(C)(O)CC=CC1C(O)CC(=O)C1CCCCCCC(=O)CO (stereo not drawn) [1,9-dioxo-11α,16-dihydroxy-16,20-dimethyl-1-hydroxymethyl-13-trans-prostene] | – | – | – | 55 | 70 | 55 | –
11 | CCCCC(O)(CC)CC=CC1C(O)CC(=O)C1CC=CCCCC(=O)CO (stereo not drawn) [1,9-dioxo-11α,16-dihydroxy-16-ethyl-1-hydroxymethyl-5-cis-13-trans-prostadiene] | – | – | – | 70 | 50 | 35 | –
12 | CCCCCC(C)(O)/C=C/C1CCC(=O)C1CCCCCCC(=O)CO (stereo not drawn) [1,9-dioxo-15α-hydroxy-15-methyl-1-hydroxymethyl-13-trans-prostene] | – | – | – | – | – | – | ED50 [1]: 0.373 µg/kg; ED50 [2]: 0.288 µg/kg; ED50 [3]: 0.293 µg/kg; % Inhibition of pilocarpine induced spasm ([4]; 5 min. after drug administration): 37%; % Inhibition of pilocarpine induced spasm ([4]; 30 min. after drug administration): 30%; % Inhibition of pilocarpine induced spasm ([4]; 60 min. after drug administration): 30%
13 | COc1ccc2c(c1)c(CC(=O)O)c(C)n2C(=O)c1ccc(Cl)cc1 [Indomethacin, reference compound] | – | – | – | – | – | – | Hematocrit (Mean ± S.E.M.) [7]: 33.1 ± 2.1; Gastric Ulcer Score (Mean ± S.E.M.) [8]: 2.9 ± 0.2; Intestinal Ulcer Score (Mean ± S.E.M.) [9]: 3.7 ± 0.2
14 | CCCCCC(O)CCC1CCC(=O)C1CCCCCCC(=O)CO [l-1,9-dioxo-15(S)-hydroxy-1-hydroxymethyl prostane] | 0.471 | 0.89 | – | 70 | 45 | 30 | –

From patent US4254285A, “1-Hydroxymethyl-1-1-oxo prostane derivatives of the E and F series” (American Cyanamid Company, priority 1979, dated 1981)
